What is called IC50 is the concentration that gives 50% inhibition.

T1 sequence (P35968 20-1356): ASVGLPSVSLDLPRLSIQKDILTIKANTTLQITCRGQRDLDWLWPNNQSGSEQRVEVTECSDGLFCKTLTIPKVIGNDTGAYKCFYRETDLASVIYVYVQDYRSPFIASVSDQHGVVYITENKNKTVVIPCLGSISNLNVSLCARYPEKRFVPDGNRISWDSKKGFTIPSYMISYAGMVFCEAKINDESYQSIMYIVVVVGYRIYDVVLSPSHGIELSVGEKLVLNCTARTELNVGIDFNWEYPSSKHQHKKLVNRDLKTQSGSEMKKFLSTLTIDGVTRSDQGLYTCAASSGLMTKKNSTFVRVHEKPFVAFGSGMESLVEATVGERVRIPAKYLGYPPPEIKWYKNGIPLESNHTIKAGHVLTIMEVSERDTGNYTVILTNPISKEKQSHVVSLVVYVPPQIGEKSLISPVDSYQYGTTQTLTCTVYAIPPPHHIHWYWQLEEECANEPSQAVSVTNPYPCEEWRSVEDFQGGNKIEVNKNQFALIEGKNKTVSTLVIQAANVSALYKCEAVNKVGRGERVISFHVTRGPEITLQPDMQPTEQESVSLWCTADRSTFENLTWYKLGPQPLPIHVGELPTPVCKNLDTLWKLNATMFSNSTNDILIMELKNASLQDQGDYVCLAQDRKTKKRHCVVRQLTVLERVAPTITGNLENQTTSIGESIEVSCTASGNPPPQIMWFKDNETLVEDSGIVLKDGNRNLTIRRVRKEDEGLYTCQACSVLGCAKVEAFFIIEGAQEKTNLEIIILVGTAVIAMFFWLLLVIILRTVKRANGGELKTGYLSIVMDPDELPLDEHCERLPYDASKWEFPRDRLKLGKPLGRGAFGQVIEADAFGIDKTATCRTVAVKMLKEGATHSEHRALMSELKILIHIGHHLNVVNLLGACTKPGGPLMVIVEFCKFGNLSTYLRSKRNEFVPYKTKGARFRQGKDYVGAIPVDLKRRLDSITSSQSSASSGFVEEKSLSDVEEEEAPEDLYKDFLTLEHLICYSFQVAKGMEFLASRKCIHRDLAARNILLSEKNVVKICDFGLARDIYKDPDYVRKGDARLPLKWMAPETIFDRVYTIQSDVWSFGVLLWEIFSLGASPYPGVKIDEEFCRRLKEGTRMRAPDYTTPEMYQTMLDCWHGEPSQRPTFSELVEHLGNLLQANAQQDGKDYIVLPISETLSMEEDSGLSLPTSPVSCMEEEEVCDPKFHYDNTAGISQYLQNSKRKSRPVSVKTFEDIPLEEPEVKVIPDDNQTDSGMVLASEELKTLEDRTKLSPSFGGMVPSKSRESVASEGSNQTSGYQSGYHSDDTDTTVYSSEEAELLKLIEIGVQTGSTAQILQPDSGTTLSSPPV

One assay concerns the target T1, VEGFR-2 (Homo sapiens, UniProt P35968).
T1 construct: purchased Cell Signaling Technology CO
Kind of assay: Protein kinase activity by ELISA in vitro, VEGFR-2. In kind it is biochemical. The following applies: concentration of 10^−7 mol/L; read-out: kinase inhibition ratio, VEGFR-2. As for the experimental part:
An ELISA (Enzyme-Linked Immunosorbent Sandwich Assay) procedure may be used to detect and measure the level of protein tyrosine kinase activity. […] According to the principle of ELISA, a monoclonal antibody can react with phosphorylated substrate specially, so biotin-labeled substrate is binded to streptavidin-coated ELISA plate, and then binded to a HRP-labeled goat anti-mouse antibody. Finally TMB is added for a color reaction and the value of A450-A630 is read by ELISA plate reader. The OD value can reflect the inhibitory activity of the VEGFR-2, PDGFR-β, c-Kit tyrosine kinases etc. treated with the test compounds at the different concentrations. So, the assay may be used to measure the inhibition ratio of the compounds for the tyrosine kinase activity. Similar assays can be designed along the same lines for any PK using techniques well known in the art.
According to the principle of ELISA, a monoclonal antibody can react with phosphorylated substrate specially, so biotin-labeled substrate is binded to streptavidin-coated ELISA plate, and then binded to a HRP-labeled goat anti-mouse antibody. Finally TMB is added for a color reaction and the value of A450-A630 is read by ELISA plate reader. The OD value can reflect the inhibitory activity of the VEGFR-2, PDGFR-β c-Kit tyrosine kinases treated with the test compounds at the different concentrations. So, the assay may be used to measure the inhibition ratio of the compounds for the tyrosine kinase activity. Similar assays can be designed along the same lines for any PK using techniques well known in the art.
VEGF Receptor 2, PDGF Receptor-beta and c-kit kinase assay kit (include kinase, 1.25M DTT, substrate peptide, 10 mM ATP, P-Tyr-100 Mouse antibody, 4×HTScan tyrosine kinase buffer), Cell Signaling Technology CO.; HRP labeled goat anti mouse IgG, Protein Tech CO.; TMB, Pierce CO.; Streptavidin Microtitration Plate, Greiner Bio-one CO.; Infinite M200 Reader, Tecan CO.
1.2.1 Immediately transfer enzyme from −80° C. to ice. Allow enzyme to thaw on ice then at 4° C. and centrifugate transiently to the bottom of centrifuge tube, then lay back on ice quickly
1.2.2 Add 10 μl of DTT (1.25 M) to 2.5 ml of 4×HTScan tyrosine kinase buffer (240 mM HEPES pH 7.5, 20 mM MgCl2, 20 mM MnCl2, 12 μM Na3VO4). Transfer 0.6 ml of DTT/Kinase buffer to each enzyme tube to make 4× reaction Cocktail. Incubate 12.5 μl of the 4× reaction cocktail with 12.5 μl/well prediluted compound of interest for 5 minutes at room temperature, and set blank control, free-enzyme control, negative control and positive control. 1.2.3 Add 10 μl 10 mM ATP to 1.25 ml 6 μM substrate peptide. Dilute the mixture with dH20 to 2.5 ml to make 2×ATP/substrate cocktail. Add 25 μl of 2×ATP/substrate cocktail to 25 μl/well preincubated reaction cocktail/compound. Incubate reaction plate at room temperature for 30 minutes. 1.2.4 Add 50 μl/well stop Buffer (50 mM EDTA, pH 8) to stop the reaction. Transfer 25 μl of each reaction and 75 μl dH2O/well to a 96-well streptavidin coated plate and incubate at room temperature for 60 minutes. Wash three times with 200 μl/well PBS/T(1×PBS, 0.05% Tween-20). 1.2.5 Dilute primary antibody, Phospho-Tyrosine mAb (P-Tyr-100), 1:500 in PBS/T with 1% BSA. Add 100 μl/well primary antibody. Incubate at room temperature for 60 minutes. Wash three times with 200 μl/well PBS/T(1×PBS, 0.05% Tween-20). 1.2.6 Prepare appropriate dilution of HRP labeled secondary antibody, 1:500 in PBS/T with 1% BSA. Add 100 μl/well secondary antibody solution. Incubate at room temperature for 30 minutes. Wash five times with 200 μl/well PBS/T 1.2.7 Add 100 μl/well TMB substrate and incubate at room temperature for 1-10 minutes. Add 50 μl 2M H2SO4 to stop the color reaction. Read the absorbance of A450-A630 with the Infinite M200 microtiter plate reader. 1.2.8 Calculate the inhibition ratio with the following formula: […]
(An ELISA detects its analyte on a solid surface through an enzyme-linked reagent.)
For `CCN(CC)CCNC(=O)c1c(C)[nH]c2c1CCC/C2=C1/C(=O)Nc2ccc(F)cc21` [I-2, N-(2-(diethylamino)ethyl)-2-methyl-7-[1,2-dihydro-5-fluoro-2-oxo-3H-indol-(Z)-3-ylidene]-4,5,6,7-tetrahydro-1H-indole-3-carboxamide], the inhibition at 0.1 µM amounted to 75%.

`CCN(CC)CCNC(=O)c1c(C)[nH]c2c1CCC/C2=C1/C(=O)Nc2ccc(Cl)cc21` [I-3, N-(2-(diethylamino)ethyl)-2-methyl-7-[1,2-dihydro-5-chloro-2-oxo-3H-indol-(Z)-3-ylidene]-4,5,6,7-tetrahydro-1H-indole-3-carboxamide]: the inhibition at 0.1 µM was 54%.

For the molecule `CCN(CC)CCNC(=O)c1c(C)[nH]c2c1CCC/C2=C1/C(=O)Nc2ccc(C)cc21` [I-4, N-(2-(diethylamino)ethyl)-2-methyl-7-[1,2-dihydro-5-methyl-2-oxo-3H-indol-(Z)-3-ylidene]-4,5,6,7-tetrahydro-1H-indole-3-carboxamide], the inhibition at 0.1 µM is 76%.

`CCN(CC)CCNC(=O)c1c(C)[nH]c2c1CCC/C2=C1/C(=O)Nc2ccccc21` [I-5, N-(2-(diethylamino)ethyl)-2-methyl-7-[1,2-dihydro-2-oxo-3H-indol-(Z)-3-ylidene]-4,5,6,7-tetrahydro-1H-indole-3-carboxamide]: the inhibition at 0.1 µM turned out to be 74%.

Regarding `Cc1[nH]c2c(c1C(=O)NCCN(C)C)CCC/C2=C1/C(=O)Nc2ccc(F)cc21` [I-6, N-(2-(dimethylamino)ethyl)-2-methyl-7-[1,2-dihydro-5-fluoro-2-oxo-3H-indol-(Z)-3-ylidene]-4,5,6,7-tetrahydro-1H-indole-3-carboxamide], the inhibition at 0.1 µM worked out at 79%.

As for `Cc1[nH]c2c(c1C(=O)NCCCN(C)C)CCC/C2=C1/C(=O)Nc2ccc(Cl)cc21` [I-7, N-(3-(dimethylamino)propyl)-2-methyl-7-[1,2-dihydro-5-chloro-2-oxo-3H-indol-(Z)-3-ylidene]-4,5,6,7-tetrahydro-1H-indole-3-carboxamide], the inhibition at 0.1 µM turned out to be 82%.

Consider `Cc1[nH]c2c(c1C(=O)NCCO)CCC/C2=C1/C(=O)Nc2ccccc21` [I-8, N-(2-hydroxyethyl)-2-methyl-7-[1,2-dihydro-2-oxo-3H-indol-(Z)-3-ylidene]-4,5,6,7-tetrahydro-1H-indole-3-carboxamide], for which the inhibition at 0.1 µM is 76%.

In the case of `CCN(CC)CC(O)CNC(=O)c1c(C)[nH]c2c1CCC/C2=C1/C(=O)Nc2ccccc21` (stereo not drawn) [I-63, N-(3-(diethylamino)-2-hydroxypropyl)-2-methyl-7-[1,2-dihydro-2-oxo-3H-indol-(Z)-3-ylidene]-4,5,6,7-tetrahydro-1H-indole-3-carboxamide], the inhibition at 0.1 µM came out at 80%.

On to `Cc1[nH]c2c(c1C(=O)NCC(O)CN1CCCC1)CCC/C2=C1/C(=O)Nc2ccccc21` (stereo not drawn) [I-70, N-(2-hydroxy-3-(pyrrolidin-1-yl)propyl)-2-methyl-7-[1,2-dihydro-2-oxo-3H-indol-(Z)-3-ylidene]-4,5,6,7-tetrahydro-1H-indole-3-carboxamide], for which the inhibition at 0.1 µM is 84%.

The assay is the same for the next values; noted with them: read-out: IC50 of the VEGF Receptor Kinase.
As to `CCN(CC)CCNC(=O)c1c(C)[nH]c2c1CCC/C2=C1/C(=O)Nc2ccc(Cl)cc21` [I-3, N-(2-(diethylamino)ethyl)-2-methyl-7-[1,2-dihydro-5-chloro-2-oxo-3H-indol-(Z)-3-ylidene]-4,5,6,7-tetrahydro-1H-indole-3-carboxamide], the concentration for half-maximal inhibition (IC50) was found to be 5.3 nM.

Consider `CCN(CC)CCNC(=O)c1c(C)[nH]c2c1CCC/C2=C1/C(=O)Nc2ccc(C)cc21` [I-4, N-(2-(diethylamino)ethyl)-2-methyl-7-[1,2-dihydro-5-methyl-2-oxo-3H-indol-(Z)-3-ylidene]-4,5,6,7-tetrahydro-1H-indole-3-carboxamide], for which the half-inhibitory concentration (IC50) was 5.6 nM.

Turning to `CCN(CC)CCNC(=O)c1c(C)[nH]c2c1CCC/C2=C1/C(=O)Nc2ccccc21` [I-5, N-(2-(diethylamino)ethyl)-2-methyl-7-[1,2-dihydro-2-oxo-3H-indol-(Z)-3-ylidene]-4,5,6,7-tetrahydro-1H-indole-3-carboxamide], the IC50 was 9 nM.

Regarding `Cc1[nH]c2c(c1C(=O)NCCO)CCC/C2=C1/C(=O)Nc2ccc(F)cc21` [I-9, N-(2-hydroxyethyl)-2-methyl-7-[1,2-dihydro-5-fluoro-2-oxo-3H-indol-(Z)-3-ylidene]-4,5,6,7-tetrahydro-1H-indole-3-carboxamide], the IC50 came to 30 nM.

For the molecule `Cc1[nH]c2c(c1C(=O)N1CCN(C)CC1)CCC/C2=C1/C(=O)Nc2ccc(F)cc21` [I-14, 2-methyl-3-(4-methylpiperazine-1-carbonyl)-7-[1,2-dihydro-5-fluoro-2-oxo-3H-indol-(Z)-3-ylidene]-4,5,6,7-tetrahydro-1H-indole], the IC50 is 79 nM.

Regarding `Cc1[nH]c2c(c1C(=O)NCC(O)CN1CCOCC1)CCC/C2=C1/C(=O)Nc2ccc(F)cc21` (stereo not drawn) [I-68, N-(2-hydroxy-3-morpholinopropyl)-2-methyl-7-[1,2-dihydro-5-fluoro-2-oxo-3H-indol-(Z)-3-ylidene]-4,5,6,7-tetrahydro-1H-indole-3-carboxamide], the half-inhibitory concentration (IC50) is 43 nM.

In the case of `Cc1[nH]c2c(c1C(=O)NCC(O)CN1CCCC1)CCC/C2=C1/C(=O)Nc2ccc(F)cc21` (stereo not drawn) [I-71, N-(2-hydroxy-3-(pyrrolidin-1-yl)propyl)-2-methyl-7-[1,2-dihydro-5-fluoro-2-oxo-3H-indol-(Z)-3-ylidene]-4,5,6,7-tetrahydro-1H-indole-3-carboxamide], the IC50 amounted to 34 nM.

Regarding `Cc1[nH]c2c(c1C(=O)NCC(O)CN1CCCCC1)CCC/C2=C1/C(=O)Nc2ccc(F)cc21` (stereo not drawn) [I-74, N-(2-hydroxy-3-(piperidin-1-yl)propyl)-2-methyl-7-[1,2-dihydro-5-fluoro-2-oxo-3H-indol-(Z)-3-ylidene]-4,5,6,7-tetrahydro-1H-indole-3-carboxamide], the IC50 was determined as 13 nM.

With `Cc1[nH]c2c(c1C(=O)NCC(O)CN1CCN(C)CC1)CCC/C2=C1/C(=O)Nc2ccc(F)cc21` (stereo not drawn) [I-77, N-[2-hydroxy-3-(4-methylpiperazin-1-yl)propyl]-2-methyl-7-[1,2-dihydro-5-fluoro-2-oxo-3H-indol-(Z)-3-ylidene]-4,5,6,7-tetrahydro-1H-indole-3-carboxamide], the IC50 is 25 nM.

(Values after patent publication US8084621B2, “3-Pyrrolo[b]cyclohexylene-2-dihydroindolinone derivatives and uses thereof” (Jiangsu Simcere Pharmaceutical R&D Co. Ltd., priority 2006, dated 2011).)
